Laboratory results as given in article PMC10035947, “Development of novel anilinoquinazoline-based carboxylic acids as non-classical carbonic anhydrase IX and XII inhibitors” (Journal of Enzyme Inhibition and Medicinal Chemistry, 2023).

Key:
SF-539 = experiment: NCI SRB assay; format: cell-based, human; conditions: for GI%: SF-539, 10 μM; for Growth Percent: SF-539, 1.00E-5 Molar
MALME-3M = experiment: NCI SRB assay; format: cell-based, human; conditions: for GI%: 10 μM; for Growth Percent: 1.00E-5 Molar
COLO 205 = experiment: NCI SRB assay; format: cell-based, human; conditions: for GI%: COLO 205, 10 μM; for Growth Percent: COLO 205, 1.00E-5 Molar
OVCAR-5 = experiment: NCI SRB assay; format: cell-based, human; conditions: for GI%: OVCAR-5, 10 μM; for Growth Percent: OVCAR-5, 1.00E-5 Molar
RPMI-8226 = experiment: NCI SRB assay; format: cell-based, human; conditions: for GI%: RPMI-8226, 10 μM; for Growth Percent: RPMI-8226, 1.00E-5 Molar
PC-3 = experiment: NCI SRB assay; format: cell-based, human; conditions: for GI%: PC-3, 10 μM; for Growth Percent: PC-3, 1.00E-5 Molar
HCC-2998 = experiment: NCI SRB assay; format: cell-based, human; conditions: for GI%: HCC-2998, 10 μM; for Growth Percent: HCC-2998, 1.00E-5 Molar
MDA-MB-468 = experiment: NCI SRB assay; format: cell-based, human; conditions: for GI%: MDA-MB-468, 10 μM; for Growth Percent: MDA-MB-468, 1.00E-5 Molar
MDA-MB-435 = experiment: NCI SRB assay; format: cell-based; conditions: for GI%: MDA-MB-435, 10 μM; for Growth Percent: MDA-MB-435, 1.00E-5 Molar
OVCAR-3 = experiment: NCI SRB assay; format: cell-based, human; conditions: for GI%: OVCAR-3, 10 μM; for Growth Percent: OVCAR-3, 1.00E-5 Molar
NCI/ADR-RES = experiment: NCI SRB assay; format: cell-based, human; conditions: for GI%: 10 μM; for Growth Percent: 1.00E-5 Molar
U251 = experiment: NCI SRB assay; format: cell-based, human; conditions: for GI%: U251, 10 μM; for Growth Percent: U251, 1.00E-5 Molar
CAKI-1 = experiment: NCI SRB assay; format: cell-based, human; conditions: for GI%: CAKI-1, 10 μM; for Growth Percent: CAKI-1, 1.00E-5 Molar
NCI-H522 = experiment: NCI SRB assay; format: cell-based, human; conditions: for GI%: NCI-H522, 10 μM; for Growth Percent: NCI-H522, 1.00E-5 Molar
DU-145 = experiment: NCI SRB assay; format: cell-based, human; conditions: for GI%: DU-145, 10 μM; for Growth Percent: DU-145, 1.00E-5 Molar
HOP-92 = experiment: NCI SRB assay; format: cell-based, human; conditions: for GI%: HOP-92, 10 μM; for Growth Percent: HOP-92, 1.00E-5 Molar
A498 = experiment: NCI SRB assay; format: cell-based, human; conditions: for GI%: A498, 10 μM; for Growth Percent: A498, 1.00E-5 Molar
HS 578 T = experiment: NCI SRB assay; format: cell-based, human; conditions: for GI%: HS 578 T, 10 μM; for Growth Percent: HS 578T, 1.00E-5 Molar
IGROV1 = experiment: NCI SRB assay; format: cell-based, human; conditions: for GI%: IGROV1, 10 μM; for Growth Percent: IGROV1, 1.00E-5 Molar
HL-60(TB) = experiment: NCI SRB assay; format: cell-based, human; conditions: HL-60(TB); for GI%: 10 μM; for Growth Percent: 1.00E-5 Molar
M14 = experiment: NCI SRB assay; format: cell-based, human; conditions: for GI%: M14, 10 μM; for Growth Percent: M14, 1.00E-5 Molar
SK-MEL-5 = experiment: NCI SRB assay; format: cell-based, human; conditions: for GI%: SK-MEL-5, 10 μM; for Growth Percent: SK-MEL-5, 1.00E-5 Molar
SK-MEL-28 = experiment: NCI SRB assay; format: cell-based, human; conditions: for GI%: SK-MEL-28, 10 μM; for Growth Percent: SK-MEL-28, 1.00E-5 Molar
hCA I = molecular target: T1, hCA I (Homo sapiens, UniProt P00915); experiment: stopped flow CO2 hydrase assay; format: biochemical; conditions: mean from 3 assays
T1 construct: made in house
Procedure, shortened: (§1)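 Recombinant enzymes assayed by stopped-flow CO2 hydration using 0.2 mM phenol red at 557 nm in 20 mM Hepes pH 7.5 with 20 mM Na2SO4, CO2 1.7–17 mM. Inhibitor and enzyme preincubated 15 min at room temperature.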

hCA IX = molecular target: T2, hCA IX (Homo sapiens, UniProt Q16790); experiment: stopped flow CO2 hydrase assay; format: biochemical; conditions: for Selectivity ratio I/IX: KI hCA I / KI hCA IX; for Selectivity ratio II/IX: KI hCA II / KI hCA IX; for Ki: mean from 3 assays
T2 construct: made in house
Procedure, shortened: as §1

hCA XII = molecular target: T3, hCA XII (Homo sapiens, UniProt O43570); experiment: stopped flow CO2 hydrase assay; format: biochemical; conditions: for Selectivity ratio I/XII: KI hCA I / KI hCA XII; for Selectivity ratio II/XII: KI hCA II / KI hCA XII; for Ki: mean from 3 assays
T3 construct: made in house
Procedure, shortened: as §1

UACC-257 = experiment: NCI SRB assay; format: cell-based, human; conditions: for GI%: UACC-257, 10 μM; for Growth Percent: UACC-257, 1.00E-5 Molar

T3 sequence (O43570 25-354): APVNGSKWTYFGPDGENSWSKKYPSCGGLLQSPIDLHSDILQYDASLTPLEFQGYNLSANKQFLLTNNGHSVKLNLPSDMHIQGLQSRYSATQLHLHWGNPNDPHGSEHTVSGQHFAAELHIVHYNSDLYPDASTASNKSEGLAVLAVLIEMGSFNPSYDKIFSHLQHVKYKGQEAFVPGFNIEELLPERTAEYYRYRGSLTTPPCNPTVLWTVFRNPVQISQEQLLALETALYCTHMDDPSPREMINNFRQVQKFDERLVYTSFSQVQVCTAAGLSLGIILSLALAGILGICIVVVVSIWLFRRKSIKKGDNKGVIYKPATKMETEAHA
T1 sequence (P00915 whole entry): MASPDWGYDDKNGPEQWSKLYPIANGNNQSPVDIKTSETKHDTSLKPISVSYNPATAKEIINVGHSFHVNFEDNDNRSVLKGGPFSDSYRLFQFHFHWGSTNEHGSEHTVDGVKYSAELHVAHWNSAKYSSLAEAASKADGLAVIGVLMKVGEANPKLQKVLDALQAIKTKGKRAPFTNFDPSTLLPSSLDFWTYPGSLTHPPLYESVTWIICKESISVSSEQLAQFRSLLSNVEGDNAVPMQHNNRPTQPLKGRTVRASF

Cc1cccc(-c2nc(Nc3ccc(C(=O)O)cc3)c3ccccc3n2)c1 [8a, 4-((2-(m-Tolyl)quinazolin-4-yl)amino)benzoic acid]
GI% (SF-539): – (Only GI% higher than 20% are shown) | Growth Percent (SF-539): 91.50% | GI% (MALME-3M): – (Only GI% higher than 20% are shown) | Growth Percent (MALME-3M): 110.61% | GI% (COLO 205): – (Only GI% higher than 20% are shown) | Growth Percent (COLO 205): 135.98% | GI% (OVCAR-5): – (Only GI% higher than 20% are shown) | Growth Percent (OVCAR-5): 133.93% | GI% (RPMI-8226): 30% | Growth Percent (RPMI-8226): 70.27% | GI% (PC-3): – (Only GI% higher than 20% are shown) | Growth Percent (PC-3): 83.31% | GI% (HCC-2998): 24% | Growth Percent (HCC-2998): 75.96% | GI% (MDA-MB-468): – (Only GI% higher than 20% are shown) | Growth Percent (MDA-MB-468): 113.23% | GI% (MDA-MB-435): – (Only GI% higher than 20% are shown) | Growth Percent (MDA-MB-435): 96.58% | GI% (OVCAR-3): – (Only GI% higher than 20% are shown) | Growth Percent (OVCAR-3): 82.69% | GI% (NCI/ADR-RES): – (Only GI% higher than 20% are shown) | Growth Percent (NCI/ADR-RES): 84.58% | GI% (U251): 27% | Growth Percent (U251): 72.61% | GI% (CAKI-1): – (Only GI% higher than 20% are shown) | Growth Percent (CAKI-1): 94.53% | GI% (NCI-H522): – (Only GI% higher than 20% are shown) | Growth Percent (NCI-H522): 87.55% | GI% (DU-145): – (Only GI% higher than 20% are shown) | Growth Percent (DU-145): 87.83% | GI% (HOP-92): 29% | Growth Percent (HOP-92): 71.13% | GI% (A498): 54% | Growth Percent (A498): 45.68% | GI% (HS 578 T): 48% | Growth Percent (HS 578 T): 51.51% | GI% (IGROV1): – (Only GI% higher than 20% are shown) | Growth Percent (IGROV1): 110.06% | GI% (HL-60(TB)): – (Only GI% higher than 20% are shown) | Growth Percent (HL-60(TB)): 92.72% | GI% (M14): – (Only GI% higher than 20% are shown) | Growth Percent (M14): 88.98% | GI% (SK-MEL-5): 29% | Growth Percent (SK-MEL-5): 71.03% | GI% (SK-MEL-28): – (Only GI% higher than 20% are shown) | Growth Percent (SK-MEL-28): 96.84% | Ki (hCA I): 87.7 µM | Selectivity ratio I/IX (hCA IX): 20.4 | Selectivity ratio II/IX (hCA IX): 2.16 | Ki (hCA IX): 4300 nM | Selectivity ratio I/XII (hCA XII): 23.1 | Selectivity ratio II/XII (hCA XII): 2.45 | Ki (hCA XII): 3800 nM | GI% (UACC-257): – (Only GI% higher than 20% are shown) | Growth Percent (UACC-257): 101.78%

Cc1ccc(-c2nc(Nc3ccc(C(=O)O)cc3)c3ccccc3n2)cc1 [8b, 4-((2-(p-Tolyl)quinazolin-4-yl)amino)benzoic acid]
GI% (SF-539): 21% | Growth Percent (SF-539): 78.63% | GI% (MALME-3M): – (Only GI% higher than 20% are shown) | Growth Percent (MALME-3M): 101.05% | GI% (COLO 205): – (Only GI% higher than 20% are shown) | Growth Percent (COLO 205): 109.50% | GI% (OVCAR-5): – (Only GI% higher than 20% are shown) | Growth Percent (OVCAR-5): 95.98% | GI% (RPMI-8226): 45% | Growth Percent (RPMI-8226): 55.07% | GI% (PC-3): 23% | Growth Percent (PC-3): 77.04% | GI% (HCC-2998): 28% | Growth Percent (HCC-2998): 72.45% | GI% (MDA-MB-468): – (Only GI% higher than 20% are shown) | Growth Percent (MDA-MB-468): 108.74% | GI% (MDA-MB-435): – (Only GI% higher than 20% are shown) | Growth Percent (MDA-MB-435): 100.06% | GI% (OVCAR-3): 20% | Growth Percent (OVCAR-3): 79.51% | GI% (NCI/ADR-RES): 24% | Growth Percent (NCI/ADR-RES): 76.55% | GI% (U251): – (Only GI% higher than 20% are shown) | Growth Percent (U251): 86.94% | GI% (CAKI-1): – (Only GI% higher than 20% are shown) | Growth Percent (CAKI-1): 88.42% | GI% (NCI-H522): – (Only GI% higher than 20% are shown) | Growth Percent (NCI-H522): 91.02% | GI% (DU-145): – (Only GI% higher than 20% are shown) | Growth Percent (DU-145): 81.93% | GI% (HOP-92): 25% | Growth Percent (HOP-92): 75.22% | GI% (A498): – (Only GI% higher than 20% are shown) | Growth Percent (A498): 112.03% | GI% (HS 578 T): 32% | Growth Percent (HS 578 T): 67.76% | GI% (IGROV1): – (Only GI% higher than 20% are shown) | Growth Percent (IGROV1): 92.17% | GI% (HL-60(TB)): 24% | Growth Percent (HL-60(TB)): 76.30% | GI% (M14): – (Only GI% higher than 20% are shown) | Growth Percent (M14): 80.88% | GI% (SK-MEL-5): 28% | Growth Percent (SK-MEL-5): 71.66% | GI% (SK-MEL-28): – (Only GI% higher than 20% are shown) | Growth Percent (SK-MEL-28): 84.51% | Ki (hCA I): 73.2 µM | Selectivity ratio I/IX (hCA IX): 45.8 | Selectivity ratio II/IX (hCA IX): 2.44 | Ki (hCA IX): 1600 nM | Selectivity ratio I/XII (hCA XII): 174.3 | Selectivity ratio II/XII (hCA XII): 9.29 | Ki (hCA XII): 420 nM | GI% (UACC-257): – (Only GI% higher than 20% are shown) | Growth Percent (UACC-257): 107.52%
